In patent US10981932B2, “Macrocyclic indole derivatives” (Bayer Aktiengesellschaft, priority 2016, dated 2021):
“And” between values parts separate entries of the source, which are not always exact repeats. Identical values can stand only once. Counter-ions that a name gives are not always drawn. Like-named read-outs stand apart in the source and are kept apart here.

Legend:
A2780 = test: Anti-proliferative effect (CellTiter-Glo, 72 h), A2780; type: cell-based; conditions: A2780 cells, median, read-out: IC50 antiproliferation assay A2780 [M] (median)
Summary of the method: (§1)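 After seeding, one plate is read right away by CellTiter-Glo luminescence to fix time zero. The treated plates stay at 37 °C in humidified air for 72 h and are then measured with the same reagent and 10 min incubation.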

SUDHL10 [1] = test: Induction of cytotoxicity (CellTiter-Glo, 5 h), SUDHL10
SUDHL5 [2] = test: Induction of cytotoxicity (CellTiter-Glo, 5 h), SUDHL5; conditions: read-out: Cytotox SUDHL5 [M] (median); SUDHL5 cells, cytotoxicity induction, CellTiter-Glo, 5 h incubation, median
SUDHL10 [3] = test: Induction of caspase-3/7 activity (Caspase-Glo 3/7), SUDHL10; type: cell-based; conditions: caspase-3/7 induction, SUDHL10 cells, 3 h treatment; median
Summary of the method: (§2)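 Apoptosis induction measured as caspase-3/7 activity (Caspase-Glo 3/7) in DLBCL lines after 3 h treatment at 37 °C; EC50 derived relative to the reference compound's maximal induction, with C0 fixed at 1.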

SUDHL5 [4] = test: Induction of caspase-3/7 activity (Caspase-Glo 3/7), SUDHL5; type: cell-based; conditions: caspase-3/7 induction, SUDHL5 cells, 3 h treatment; median
Summary of the method: as §2

SUDHL5 [5] = test: Anti-proliferative effect (CellTiter-Glo, 72 h), SUDHL5; type: cell-based; conditions: SUDHL5 cells, antiproliferation, 72 h incubation, median, read-out: Antiproli SUDHL5 [M] (median)
Summary of the method: as §1

OPM2 = test: Anti-proliferative effect (CellTiter-Glo, 72 h), OPM2; type: cell-based; conditions: OPM2 cells, median, read-out: IC50 antiproliferation assay OPM2 [M] (median)
Summary of the method: as §1

SUDHL10 [6] = test: Anti-proliferative effect (CellTiter-Glo, 72 h), SUDHL10; type: cell-based; conditions: SUDHL10 cells, antiproliferation, 72 h incubation, median, read-out: Antiproli SUDHL10 [M] (median)
Summary of the method: as §1

MCL-1 = MCL-1 (Homo sapiens, UniProt Q07820); test: Protein-protein interaction assay MCL-1/Noxa BH3 peptide (MCL-1 assay), TR-FRET; type: binding; conditions: MBP-MCL-1 / Noxa BH3-derived peptide, median
Summary of the method: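 Inhibition values were normalized between DMSO controls with all reagents and controls lacking MCL-1. The binding competition used 1 nM MBP-MCL-1 in pH 7 Tris buffer containing 50 mM KF and 100 mM NaCl, with a 10 min compound preincubation at 22 °C.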

[7] = read-out: Cytotox SUDHL10 [M] (median), SUDHL10 cells, cytotoxicity induction, CellTiter-Glo, 5 h incubation, median

MCL-1, sequence (Q07820 whole entry): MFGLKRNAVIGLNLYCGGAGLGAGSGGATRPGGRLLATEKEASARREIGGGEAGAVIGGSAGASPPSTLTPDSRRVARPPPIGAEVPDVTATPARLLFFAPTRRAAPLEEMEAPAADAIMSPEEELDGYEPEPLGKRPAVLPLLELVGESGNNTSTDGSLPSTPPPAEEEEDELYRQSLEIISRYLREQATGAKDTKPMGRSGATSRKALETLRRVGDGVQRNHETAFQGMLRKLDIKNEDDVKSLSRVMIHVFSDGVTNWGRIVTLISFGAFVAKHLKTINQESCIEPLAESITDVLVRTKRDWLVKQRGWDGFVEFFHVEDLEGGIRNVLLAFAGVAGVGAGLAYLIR

SMILES	IC50 (A2780; Homo sapiens, A2780, 72 h) [M]	EC50 (SUDHL10 [3])	EC50 (SUDHL5 [4]) [µM]	IC50 (SUDHL5 [5]) [M]	IC50 (SUDHL10 [6]) [M]	IC50 (MCL-1) [µM]	IC50 (SUDHL5 [5]; Homo sapiens, SU-DHL-5, 72 h) [M]	IC50 (SUDHL10 [6]; Homo sapiens, SU-DHL10, 72 h) [M]	IC50 (A2780) [M]	IC50 (SUDHL10 [1]; Homo sapiens, SU-DHL10, 5 h, read-out: Cytotox SUDHL10 [M] (median), SUDHL10 cells, cytotoxicity induction, CellTiter-Glo, 5 h incubation, median)	IC50 (SUDHL10 [1]; [7])	IC50 (SUDHL5 [2])	IC50 (OPM2; Homo sapiens, OPM-2, 72 h) [M]	IC50 (OPM2) [M]
CCOCc1nn(C)c2c1-c1cccc3c(CCCOc4cccc5ccccc45)c(C(=O)O)n(c13)CCCCOC2 (single isomer, unassigned; enantiomer 1) [Example 169, 3-(ethoxymethyl)-1-methyl-7-[3-(naphthalen-1-yloxy)propyl]-1,10,11,12,13,15-hexahydropyrazolo[4′3′:9,10][1,6]oxazacycloundecino[8,7,6-hi]indole-8-carboxylic Acid (Enantiomer 1)]	2.02e-05	> 33 µM	> 33	2.68e-05	2.02e-05	0.0184	–	–	–	2.01e-05	> 3.3e-05 M	1.74e-05 M and > 3.3e-05 M	2.04e-05	–
Cn1nc(COc2ccc(N3CCN(C(=O)C4CC4)CC3)cc2)c2c1COCCCCn1c(C(=O)O)c(CCCOc3cccc4ccccc34)c3cccc-2c31 (single isomer, unassigned; enantiomer 2) [Example 1-23, 3-({4-[4-(cyclopropylcarbonyl)piperazin-1-yl)phenoxy]methyl}-1-methyl-7-[3-(naphthalen-1-yloxy)propyl]-1,10,11,12,13,15-hexahydropyrazolo[4′,3′:9,10][1,6]oxazacycloundecino[8,7,6-hi]indole-8-carboxylic acid (enantiomer 2)]	–	23 µM	21.3	1.15e-05	5.59e-06	0.0323	–	–	1.43e-05	–	> 3.3e-05 M	2.45e-05 M	–	1.7e-05
Cc1nn(C)c2c1-c1cccc3c(CCCOc4cccc5ccccc45)c(C(=O)O)n(c13)CCCN(C)C2 (single isomer, unassigned; enantiomer 2) [Example 1-32, 7,9,11-trimethyl-1-[3-(naphthalen-1-yloxy)propyl]-4,5,6,7,8,9-hexahydropyrazolo[3′,4′:7,8][1,5]diazecino[9,10,1-hi]indole-2-carboxylic Acid-N-ethylethanamine Salt (Enantiomer 2)]	–	22.9 µM and 20.4 µM and > 33 µM	> 33	1.63e-05	1.18e-05	0.0492	–	–	1.82e-05	–	3.23e-05 M	> 3.3e-05 M	–	2.76e-05
Cc1c2c(nn1C)COCCCCn1c(C(=O)O)c(CCCOc3cccc4ccccc34)c3cccc-2c31 (single isomer, unassigned; enantiomer 2) [Example 1-38, (−)-2,3-dimethyl-7-[3-(naphthalen-1-yloxy)propyl]-2,10,11,12,13,15-hexahydropyrazolo[4′,3′:9,10][1,6]oxazacycloundecino[8,7,6-hi]indole-8-carboxylic Acid (Enantiomer 2)]	–	> 33 µM	> 33	2.3e-05	1.49e-05	0.0751	–	–	> 3.3e-05	–	> 3.3e-05 M	> 3.3e-05 M	–	3.22e-05
Cc1nn(C)c2c1-c1cccc3c(CCCOc4cccc5ccccc45)c(C(=O)O)n(c13)CCCN(c1ccc(N3CCOCC3)cc1)C2 (single isomer, unassigned; enantiomer 2) [Example 1-100, 9,11-Dimethyl-7-[4-(morpholin-4-yl)phenyl]-1-[3-(1-naphthyloxy)propyl]-4,5,6,7,8,9-hexahydropyrazolo[3′,4′:7,8][1,5]diazecino[9,10,1-hi]indole-2-carboxylic Acid (Enantiomer 2)]	–	> 33 µM and 30.6 µM	28.4	9.42e-06	6.21e-06	0.0359	–	–	1.38e-05	–	> 3.3e-05 M and 3.29e-05 M	> 3.3e-05 M	–	1.94e-05

Stronger by EC50 (SUDHL5 [4]), values ahead:

IC50 (A2780; Homo sapiens, A2780, 72 h) [M]	EC50 (SUDHL10 [3])	EC50 (SUDHL5 [4]) [µM]	IC50 (SUDHL5 [5]) [M]	IC50 (SUDHL10 [6]) [M]	IC50 (MCL-1) [µM]	IC50 (SUDHL5 [5]; Homo sapiens, SU-DHL-5, 72 h) [M]	IC50 (SUDHL10 [6]; Homo sapiens, SU-DHL10, 72 h) [M]	IC50 (A2780) [M]	SMILES	IC50 (SUDHL10 [1]; Homo sapiens, SU-DHL10, 5 h, read-out: Cytotox SUDHL10 [M] (median), SUDHL10 cells, cytotoxicity induction, CellTiter-Glo, 5 h incubation, median)	IC50 (SUDHL10 [1]; [7])	IC50 (SUDHL5 [2])	IC50 (OPM2; Homo sapiens, OPM-2, 72 h) [M]	IC50 (OPM2) [M]
> 3.3e-05	19.9 µM	16.9	3.25e-06	1.18e-05	0.0137	–	–	–	CN1CCCn2c(C(=O)O)c(CCCOc3cccc4ccccc34)c3cccc(c32)-c2c(COc3ccc(-n4ccccc4=O)cc3)nn(C)c2C1 (single isomer, unassigned; enantiomer 2) [Example 1-116, 7,9-Dimethyl-1-[3-(1-naphthyloxy)propyl]-11-{[4-(2-oxopyridin-1(2H)-yl)phenoxy]methyl}-4,5,6,7,8,9-hexahydropyrazolo[3′,4′:7,8][1,5]diazecino[9,10,1-hi]indole-2-carboxylic Acid (Enantiomer 2)]	–	> 3.3e-05 M	1.32e-05 M	–	2.96e-05
–	15.3 µM	15.3	4.04e-06	2.58e-06	0.0581	–	–	7.54e-06	CCS(=O)(=O)N1CCN(c2ccc(N3CCCn4c(C(=O)O)c(CCCOc5cccc6ccccc56)c5cccc(c54)-c4c(C)nn(C)c4C3)cc2)CC1 (single isomer, unassigned; enantiomer 2) [Example 1-110, 7-{4-[4-(Ethylsulfonyl)piperazin-1-yl]phenyl}-9,11-dimethyl-1-[3-(1-naphthyloxy)propyl]-4,5,6,7,8,9-hexahydropyrazolo[3′,4′:7,8][1,5]diazecino[9,10,1-hi]indole-2-carboxylic Acid (Enantiomer 2)]	–	1.69e-05 M	1.53e-05 M	–	8.62e-06
> 3.3e-05	13.4 µM	6.48	–	6.45e-06	0.00268	2.24e-06	–	–	CCOCc1nn(C)c2c1-c1cccc3c(CCCOc4cccc5c4CCCC5)c(C(=O)O)n(c13)CCCCOC2 (single isomer, unassigned; enantiomer 1) [Example 171, 3-(ethoxymethyl)-1-methyl-7-[3-(5,6,7,8-tetrahydronaphthalen-1-yloxy)propyl]-1,10,11,12,13,15-hexahydropyrazolo[4′,3′:9,10][1,6]oxazacycloundecino[8,7,6-hi]indole-8-carboxylic Acid (Enantiomer 1)]	–	1.39e-05 M	5.08e-06 M	–	1.23e-05
–	15.6 µM	5.36	1.01e-05	4.36e-06	0.00297	–	–	2.67e-05	CCOCc1nn(C)c2c1-c1cccc3c(CCCOc4cccc5ccccc45)c(C(=O)O)n(c13)CCCCOC2 (single isomer, unassigned; enantiomer 2) [Example 170, 3-(ethoxymethyl)-1-methyl-7-[3-(naphthalen-1-yloxy)propyl]-1,10,11,12,13,15-hexahydropyrazolo[4′,3′:9,10][1,6]oxazacycloundecino[8,7,6-hi]indole-8-carboxylic Acid (Enantiomer 2)]	–	2e-05 M	6.94e-06 M	–	1.34e-05
–	7.36 µM	4.11	2.28e-06	1.01e-05	0.00314	–	–	1.14e-05	Cn1nc(COc2ccc(N3CCOCC3)cc2)c2c1COCCCCn1c(C(=O)O)c(CCCOc3cccc4ccccc34)c3cccc-2c31 (single isomer, unassigned; enantiomer 2) [Example 123, 1-methyl-3-{[4-(morpholin-4-yl)phenoxy]methyl}-7-[3-(naphthalen-1-yloxy)propyl]-1,10,11,12,13,15-hexahydropyrazolo[4′,3′:9,10][1,6]oxazacycloundecino[8,7,6-hi]indole-8-carboxylic Acid (Enantiomer 2)]	–	2.1e-05 M	3.13e-06 M	–	4.32e-06
1.38e-05	1.95 µM	1.63	1.25e-06	–	0.00285	–	2.19e-06	–	CN(C)S(=O)(=O)N1CCN(c2ccc(OCc3nn(C)c4c3-c3cccc5c(CCCOc6cccc7ccccc67)c(C(=O)O)n(c35)CCCCOC4)cc2)CC1 (single isomer, unassigned; enantiomer 2) [Example 1-20, 3-({4-[4-(dimethylsulfamoyl)piperazin-1-yl]phenoxy}methyl)-1-methyl-7-[3-(naphthalen-1-yloxy)propyl]-1,10,11,12,13,15-hexahydropyrazolo[4′,3′:9,10][1,6]oxazacycloundecino[8,7,6-hi]indole-8-carboxylic Acid (Enantiomer 2)]	–	3.06e-06 M	2.11e-06 M	2.32e-06	–
